According to patent publication US7939275B2, “Methods for detection of chlamydia in samples” (priority 2005, dated 2011):
Like-named read-outs stand apart in the source and are kept apart here.

How the values were obtained:
[1] = test system: anti-Chlamydia abzymes; assay type: biochemical, human
Experimental: (§1) For chemical inactivation, a diluent solution was divided into two portions. In one portion, an abzyme inhibitor was added. The following abzyme inhibitors were used DMSO, 0.1-10%; sodium azide, 10^−5-10^−3M; catechins, 10^−6-10^−3M; ketek, […]; lactobacilli culture, 1 μM-1 mM; ascorbic acid, 10^−4-10^−3M; acetyl salicylic acid, 10^−4-10^−3M.
(§2) The serum sample was split in two aliquots and one aliquot was diluted by solution containing the abzyme inhibitor, the second aliquot was diluted by the control solution. The aliquots were then tested in the same fashion.
Lipid peroxidation was assessed as a level of MDA concentration which was measured by spectrophotometric method [Draper, H. H. et al Free Radic. Biol. Med. (1993) 15, 353]. This method is based on the formation of a coloured product when malondialdehyde reacts with thiobarbituric acid. Briefly, the level of abzymes in a sample was determined as follows: Samples of sera were diluted 1:1 by 0.05M acetate buffer pH 4.0 to make the final pH of these samples between 5.6-5.8. 990 μl of the diluted serum was mixed with 10 μl of the commercial live ovine Chlamydia vaccine (Intervet). Samples were incubated overnight (12-16 hours) at 37° C. 250 μl of 40% trichloroacetic acid and 250 μl of 1 mM 2-thiobarbituric acid was added to each sample. All samples were placed in a water bath and boiled for 30 minutes. Samples were cooled down and centrifuged at 3,000 g for 10 minutes. The supernatants were collected and their absorption measured at λ 525 nm to determine the concentration of malondialdehydes (MDA), which are products of lipid peroxidation.

[2] = test system: anti-Chlamydia abzymes; assay type: biochemical, human; remark: listed apart in the source
Experimental: as §1, §2
ELISA assays were performed using Medac materials and reagents, which were used in accordance with the manufacturers instructions.
Briefly, serum samples from patients were treated as described above. 50 μl of sample diluent was pipetted into microtitre well Al as blank, and 50 μl of the negative control, Positive Control and the diluted patients' samples were pipetted into other microtitre wells. The microplate wells were incubated for 60 min (±5 min) at 37° C. (±1° C.) in a humid chamber and then washed three times with 200 μl wash buffer per well. 50 μl of Conjugate was then added to each well and the microplate wells incubated again for 60 min (±5 min) at 37° C. (±1° C.) in a humid chamber and then washed. 50 μl of TMB-Substrate, was added to each well and the microplate wells incubated for 30 min (±2 min) at 37° C. (±1° C.) in a humid chamber. The reaction was stopped by adding 100 μl of Stop Solution, to each well.
Photometric reading was performed using a plate reader at 450 nm (ref. 620-650 nm) within 15 min after adding the Stop Solution.
To calculate the results, the OD value of the blank (well A1) was subtracted from all other OD values. […] Cut-off=mean OD value of the Negative Control+0.380. Grey zone=Cut-off±10%

[3] = patient serum, abzyme inhibitor added to diluent

Row | Molecule | Inhibition of abzymes ability to cause: Serum lipid peroxidation, in MDA assay [1] | Inhibition of abzymes ability to cause: Damage of Chlamydia pneumoniae antigen, in ELISA [2] | Inhibition of abzymes ability to cause: Serum lipid peroxidation, in MDA assay [1, 3] | Inhibition of abzymes ability to cause: Damage of Chlamydia pneumoniae antigen, in ELISA [2, 3]
1 | Cc1c(O)cc2c(c1C)O[C@](C)(CCC[C@H](C)CCC[C@H](C)CCCC(C)C)CC2 [(+) y-Tocopherol] | Negative | Negative | – | –
2 | Cc1c(C)c2c(c(C)c1O)CC[C@@](C)(CCC[C@H](C)CCC[C@H](C)CCCC(C)C)O2 [(+) α-Tocopherol] | – | – | Negative | Negative
3 | CC(=O)Oc1ccccc1C(=O)O [Acetyl salicylic acid] | Positive | Positive | – | –
4 | O=C1O[C@H]([C@@H](O)CO)C(O)=C1O [Ascorbic acid] | – | – | Positive | Positive
5 | O=C(O)c1ccccc1 [Benzoic acid] | Negative | Negative | – | –
6 | OC[C@@H](O)[C@@H](O)[C@H](O)[C@H](O)CO [D-Mannitol] | – | – | Negative | Negative
7 | C[S+](C)[O-] [DMSO] | – | – | Positive | Positive
8 | O=C(O)CN(CCN(CC(=O)O)CC(=O)O)CC(=O)O [EDTA] | Positive | Positive | – | –
9 | O=C(O)CN(CCOCCOCCN(CC(=O)O)CC(=O)O)CC(=O)O [EGTA] | – | – | – | Positive
10 | CC(C)=CCC/C(C)=C/C=C/C(C)=C/C=C/C(C)=C/C=C/C=C(C)/C=C/C=C(C)/C=C/C=C(\C)CCC=C(C)C [Lycopene] | – | – | Negative | Negative
11 | CC[C@H]1OC(=O)[C@H](C)C(=O)[C@H](C)[C@@H](O[C@@H]2O[C@H](C)C[C@H](N(C)C)[C@H]2O)[C@](C)(OC)C[C@@H](C)C(=O)[C@H](C)[C@H]2N(CCCCn3cnc(-c4cccnc4)c3)C(=O)O[C@]12C [Telithromycin, Ketek, Telithromycin] | – | – | Positive | Positive
12 | CC1=C(/C=C/C(C)=C/C=C/C(C)=C/C=C/C=C(C)/C=C/C=C(C)/C=C/C2=C(C)CCCC2(C)C)C(C)(C)CCC1 [β-Carotene] | Negative | Negative | – | –
13 | (+) Catechin gallate | – | – | Positive | Positive
14 | Haemoglobin | Positive | Positive | – | –
15 | PMS | Negative | Negative | – | –
